{
  "source": "patent US6448280B1",
  "about": "“Angiotensin II antagonists against disorders associated with impaired neuronal conduction velocity, especially diabetic neuropathy” (Zeneca Limited, priority 1992, dated 2002)",
  "assay_type_in_all_cases": "in vivo",
  "key": {"[1]": {"test_system": "saphenous nerve", "assay": "Sensory nerve conduction velocity in streptozotocin-diabetic rats, saphenous nerve", "conditions": "streptozotocin-diabetic male rats; 50 mg/kg daily by gavage for one month, started after one month of diabetes; groin to ankle", "protocol": "(§1) Using an analogous method to that described by Cameron et al in Quarterlty Journal of Experimental Physiology, 1989, 74, 917-926, mature male rats were divided into non-diabetic animals (normal control group) and animals rendered diabetic (by administration of streptozotocin (40-45 mg/kg in 20 mmol/l sodium citrate buffer, pH 4.5, i.p.). The diabetic animals were further divided into two groups. After one month, the motor nerve conduction velocities in one of the diabetic groups (diabetic control group 1) were measured in vivo between the sciatic notch and the knee for motor branches supplying the gastrocnemius and tibialis anterior muscles of the calf using the procedures described by Cameron et al (ibid) (further details of the procedures are given in Experimental Neurology, 1986, 92, 757-761). Sensory nerve conduction velocity was also measured for diabetic control group 1 in the saphenous nerve between the groin and ankle (again using the method of Cameron et al (ibid)). The remaining group of diabetic animals was further divided into two groups. One of these groups was given daily 2-ethyl-4-[(2′-(1H-1,2,3,4-tetrazol-5-yl)biphenyl-4-yl)methoxy]quinoline hydrochloride (Compound A; 50 mg/kg) by gavage, the other group remaining untreated (diabetic control group 2). […]"}, "[2]": {"test_system": "motor branches supplying the tibialis anterior muscle (sciatic nerve)", "assay": "Motor nerve conduction velocity in streptozotocin-diabetic rats, sciatic branch to tibialis anterior", "conditions": "streptozotocin-diabetic male rats; 50 mg/kg daily by gavage for one month, started after one month of diabetes; sciatic notch to knee", "protocol": "as §1"}, "[3]": {"test_system": "motor branches supplying the gastrocnemius muscle (sciatic nerve)", "assay": "Motor nerve conduction velocity in streptozotocin-diabetic rats, sciatic branch to gastrocnemius", "conditions": "streptozotocin-diabetic male rats; 50 mg/kg daily by gavage for one month, started after one month of diabetes; sciatic notch to knee", "protocol": "as §1"}},
  "data": [
    {"smiles": "CCc1cc(OCc2ccc(-c3ccccc3-c3nnn[nH]3)cc2)c2ccccc2n1.Cl", "note": "[Compound A, 2-ethyl-4-[(2′-(1H-1,2,3,4-tetrazol-5-yl)biphenyl-4-yl)methoxy]quinoline hydrochloride]", "values": [
      {"measurement": "Sensory NCV Saphenous", "setting": "[1]", "result": "60.2 ± 1.1", "unit": "m/s"},
      {"measurement": "Motor NCV Tibialis Anterior", "setting": "[2]", "result": "60.3 ± 1.2", "unit": "m/s"},
      {"measurement": "Motor NCV Gastrocnemius", "setting": "[3]", "result": "62.8 ± 0.9", "unit": "m/s"}
    ]}
  ]
}
